In a melting point compilation (Tetko et al.; mined from patent text by program, amines drawn as free bases though some values may be those of a salt):

Row | SMILES | melting point
1 | CC1CN(C)c2c(Cl)ccc3c(=O)c(C(=O)O)cn1c23 (stereo unspecified) | 243 to 245 °C
2 | Cc1ccc(S(=O)(=O)CC(=O)C(C)(C)C)cc1 | 119 to 122 °C
3 | Cc1c(C)c2c(c(C)c1NC(=O)c1cccs1)C(c1ccc(C(C)C)cc1)C(C)(C)O2 (stereo unspecified) | 222 to 224 °C
4 | CC(C)=CCCC(C)=CCOc1ccc(C(=O)NCCSc2ccc(C(F)(F)F)cn2)cc1 | 96.7 to 97.5 °C
5 | O=C1Nc2ccccc2SC1c1ccc(F)cc1 (stereo unspecified) | 216 to 219 °C
6 | O=C(C[C@@H](CCc1ccccc1)C(=O)O)OCC(Cl)(Cl)Cl | 59 to 61 °C
7 | CC(C)n1nc(CS(C)=O)cc1O (stereo unspecified) | 69 °C
8 | CN(C)C(=O)c1ccc(-c2ccc(N)cc2)cc1 | 184 to 186 °C
9 | O=C(Nc1ccc(C(F)(F)F)cc1)C1CC(c2ccc(F)cc2)N(c2ccc(Cl)cc2)N1 (stereo unspecified) | 50 to 55 °C
10 | O=C(O)c1cccc2sc3ccccc3c(=O)c12 | 269 to 270 °C
11 | CN1C(=O)[C@@H](NC(=O)CCC2CCCCC2)C[C@@H](c2ccccc2)c2ccccc21 (relative stereo) | 156 to 158 °C
12 | CN(C)C(=O)c1c(-c2ccccc2)ccc2ccccc12 | 133 to 134 °C
13 | COc1cc(OC)nc(-n2cnc(N)n2)n1 | 219 °C
14 | Cc1cc(C)cc(NC(=O)Cc2ccc(OC3(C(=O)O)CCOC3C)cc2)c1 (racemic) | 164 to 167 °C
15 | Oc1ccc2c(c1)[C@H](O)[C@H](Cc1cccnc1)CO2 (relative stereo) | 144 to 147 °C
16 | N#CCC(=C(C#N)C#N)c1ccccc1 | 92 to 98 °C
17 | N#Cc1ccc(CC(NC(=O)CC(NS(=O)(=O)c2ccc3ccccc3c2)c2ccccc2)C(=O)N2CCCC2)cc1 (stereo unspecified) | 195 to 200 °C
18 | CC(=O)ON(C)C(=O)C(C)Nc1c([N+](=O)[O-])cc(C)cc1[N+](=O)[O-] (stereo unspecified) | 137 to 138 °C
19 | CC(=O)NC1C(C)(C)c2ccc(CCN3CCN(c4nsc5ccccc45)CC3)cc2C1(C)C (stereo unspecified) | 75 to 80 °C
20 | FC(F)(F)c1cccc2c(-c3ccccc3)c(Sc3ccccc3)cnc12 | 153 to 155 °C
21 | CC1CC(c2ncc3nccc-3[nH]2)C(C)C(c2ccccc2)N1 (stereo unspecified) | 131 to 132 °C
22 | COC(=O)C(NCC(=O)c1ccccc1)C(C)C (racemic) | 32.5 to 50.8 °C
23 | O=S(Cc1ccccc1NC1CCCC1)c1nc2ncccc2[nH]1 (stereo unspecified) | 134 °C
24 | CC(C)(C)OC(=O)N1CCC(c2nc3cc(-c4ccc(S(C)(=O)=O)cc4F)ccc3o2)CC1 | 144 to 147 °C
25 | CCC(=O)Nc1n[nH]c(C(C)(C)C)c1Cl | 136 to 137 °C
26 | CN1C2CCC1CC(=NO)C2 | 140 to 142 °C

Row | SMILES | melting point
27 | O=c1[nH]c(=Cc2ccc(OCc3ccccc3)cn2)c(=O)[nH]c1=Cc1cccc(Cl)c1 | 236 to 237 °C
28 | COc1ccc(CN(C)C(=O)CCCc2ccc([N+](=O)[O-])cc2)cc1OC | 90 °C
29 | Oc1ccc2c(c1)CCCC(c1ccccc1)=C2c1ccc(OCCCCCSCc2ccc(C(F)(F)F)cc2)cc1 | 147 °C
30 | CCCN(CCC)[C@H]1Cc2c[nH]c3ccc(C(=O)NN)c(c23)C1 | 137 to 138 °C
31 | CCN1C(=O)C(C)(C)C(=O)N(C)c2cc(CCN(CCn3cc(C)c4oc(C)cc4c3=O)Cc3cc(C)nn3C)ccc21 | 168 to 170 °C
32 | O=C(CCc1ccccc1)Oc1n[nH]c(=O)c2nc3cc(Cl)ccc3c(O)c12 | > 300 °C
33 | CC(C)(C)OC(=O)NC(CC(=O)ON1C(=O)CCC1=O)c1ccc(-c2ccccc2)cc1 (stereo unspecified) | 161 °C
34 | CCOC(=O)c1cc2c3c(c(-c4ccccc4Cl)cc2n1CCCOC)C(=O)NC3=O | 235 to 237 °C
35 | CCOC(=O)c1cnc2cc(OC)ccc2c1O | > 260 °C
36 | O=C1N(c2ccccc2)CCN1C1CCN(Cc2ccccc2)CC1 | 168 to 170 °C
37 | CC1=C(c2ccc(C(=O)N3Cc4cccn4Cc4ccccc43)cc2)CCCC1 | 119 to 120 °C
38 | COc1ccc(N)c(C2Cc3ccccc3N2)c1 (stereo unspecified) | 120 to 123 °C
39 | Nc1ccc(-c2nc(Cc3ccccc3)no2)cc1Br | 144 to 145 °C
40 | CC(=C1SC(=O)NC1=O)c1ccc(OCCOc2c(-c3ccc(F)cc3)n(C)c3ccccc3c2=O)cc1 | 228 to 230 °C
41 | CCc1ccc(C(=O)c2ccccc2C(=O)O)c(CC)c1 | 115 to 118 °C
42 | O=C(CCCCl)N(c1ccccc1)c1ccccc1 | 78 to 79 °C
43 | CC(O)CCc1ccc(-c2ccccc2F)cc1 (stereo unspecified) | 59 to 60 °C
44 | Cc1nc(N2CCN(Cc3ccccc3)C2=O)sc1C(=O)NCc1cccnc1 | 153 to 154 °C
45 | Cc1nc(C)c(CO)c(-c2ccc(F)cc2)n1 | 174 to 176 °C
46 | Cc1noc(C)c1COc1cc(-n2c(=O)cc(C(F)(F)F)n(C)c2=O)c(F)cc1Cl | 120 to 123 °C
47 | Cc1cc(-c2nc3cc(OCCOC(C)C)cc(OCCOC(C)C)c3c(=O)[nH]2)cc(C)n1 | 124 to 125 °C
48 | CN1CCC(O)(c2cc(F)cc(Cl)c2)C1 (stereo unspecified) | 117 to 118 °C
49 | CC(NC(=O)C(CS)Cc1ccccc1)C(=O)O (stereo unspecified) | 120 to 124 °C
50 | CC12CC=C3c4ccc(O)cc4CCC3(C=C(F)F)C1CCC2O (stereo unspecified) | 103 to 106 °C
51 | CCOC(=O)c1cc(-c2ccc(Cl)cc2)cnc1C | 71 °C
52 | CCOC[PH](=O)SCCSCCNC(=O)CCCCCn1c(=O)n(C)c(=O)c2[nH]cnc21 (stereo unspecified) | 103 to 106 °C

Row | SMILES | melting point
53 | CCOC(=O)c1ccc2c(c1)sc1ccc(C)cc12 | 83 to 87 °C
54 | N#CC1=Cc2ccccc2OC1 | 44 to 45 °C
55 | COc1ccc(CC(C)NC(O)Cc2cc3ccccc3o2)cc1 (stereo unspecified) | 75 to 85 °C
56 | CCCCc1nc(C)c(CCC(=S)N(C)C)c(=O)n1Cc1ccc(-c2ccccc2-c2nnn[nH]2)cc1 | 76.2 to 81.2 °C
57 | CCn1cc(C(=O)c2sc(NC(=O)c3ccncc3)nc2-c2ccco2)ccc1=O | 295 to 296 °C
58 | COc1ccc(-n2ncc3c2-c2ccccc2C3)cc1 | 102 to 103 °C
59 | C[Si](C)(C1C=Cc2c(-c3ccccc3)cccc21)C1C=Cc2c(-c3ccccc3)cccc21 (stereo unspecified) | 109 to 110 °C
60 | COc1c(Cl)cc(N=C=S)cc1C(=O)Nc1c(C)cccc1C | 191 to 192 °C
61 | O=C(OCc1ccccc1)c1ccc(Br)c(OCc2ccccc2)c1 | 80.5 to 81.5 °C
62 | O=C(O)c1ccccc1Oc1ccc(C(F)(F)F)cc1NS(=O)(=O)c1ccc(Br)cc1 | 167 to 168 °C
63 | Clc1ccc2c(c1)Cc1ccc(-c3nnn[nH]3)cc1S2 | 257 °C
64 | O=C1C(=O)N(Cc2ccc(O)cc2)c2ccc(S(=O)(=O)N3CCC[C@H]3COc3ccccc3)cc21 | 170 to 172 °C
65 | Clc1cc(-c2ccnc(NCC3CCCO3)n2)ccn1 (stereo unspecified) | 74 to 75 °C
66 | O=C(NC1CCCCC1)c1c(O)c2ccccc2n(Cc2ccc(F)cc2)c1=O | 168 °C
67 | COC(=O)c1ccc2c(ccn2Cc2cccc(NC(=O)OC3CCCC3)c2)c1 | 131 to 133 °C
68 | COC(=O)CN1CCN(C(=O)OC(C)(C)C)C(Cc2ccc(OCc3ccccc3)cc2)C1=O (stereo unspecified) | 84 to 87 °C
69 | CCn1cc(C(F)(F)F)c(=O)[nH]c1=O | 259 to 260 °C
70 | CCCCCCCCC=CC(=O)c1c(C)[nH]n(-c2ccccc2)c1=O | 40 °C
71 | CCSc1nnc(-c2ccc(OC)cc2)c(-c2ccc(OC)cc2)n1 | 118 to 120 °C
72 | C=CC(=O)c1ccc(OCC(=O)O)c(Cl)c1Cl | 111 to 113 °C
73 | Cc1ccc2c(c1)CC(=S)N2 | 120 to 122 °C
74 | CC(C)(C)c1ccc(S(=O)(=O)N2c3ccccc3C[C@H]2C(=O)NCc2ccc(CC(=O)O)cc2)cc1 | 80 to 85 °C
75 | Nc1cc(-n2cc(C(=O)O)c(=O)c3cc(F)c(NC4CC4)c(Cl)c32)c(F)cc1F | 141 to 143 °C
76 | CCCCN[C@@H]1CN(CC)C[C@H]1O (relative stereo) | 57.5 to 59 °C
77 | CN1CCN(C(=O)c2cc(=O)c3c(OCCOc4ccccc4)cccc3o2)CC1 | 90 to 91.5 °C
78 | O=S1(=O)NCN(C2CC2)c2ccc(F)c(Cl)c21 | 198 to 200 °C

Row | SMILES | melting point
79 | CC(=NOCCC(=O)O)c1ccc(Cl)cc1 | 80 to 83 °C
80 | O=C(Nc1nc(Cl)cc(Cl)n1)NS(=O)(=O)Nc1ccccc1C(=O)C1CC1 | 114 to 116 °C
81 | Cc1oc(-c2ccccc2)nc1COc1ccc(CON=C(CCCCCC(=O)O)c2ccccc2)cc1 | 84 to 85 °C
82 | C[Si](C)(CCCc1nnc(N)nc1O)c1ccccc1 | 250 to 252 °C
83 | O=C(c1ccc(F)cc1)C1CCN(CCCn2c(=O)[nH]c3cc(Cl)c(Cl)cc32)CC1 | 198 to 202 °C
84 | CCCc1c(OCC2Cc3cc(CC(=O)OC)ccc3O2)ccc(C(C)=O)c1O (stereo unspecified) | 77 to 78 °C
85 | O=C1NCC2(CCNCC2)O1 | 95 to 96 °C
86 | C=CC(=O)Nc1cccc2c(=O)c(C)c(-c3ccccc3)oc12 | 229 to 230 °C
87 | Cn1cc(C(=O)O)c(=O)c2cc3cc(F)c(N4CCNC(c5ccccc5)C4)cc3nc21 (racemic) | 265 °C
88 | CC(=O)N1CCC(C)(C)C2=C1CCc1cc(Cl)ccc12 | 126 to 127 °C
89 | Oc1cc2ccsc2c(Cl)c1Cl | 97 to 98 °C
90 | O=C(CC1(C=NO)OCCO1)OCc1ccccc1 | 52 °C
91 | ClCCN1C2CCC1CC(c1ccc3ccccc3c1)C2 (stereo unspecified) | 84 to 88 °C
92 | Cn1cc(C(=O)c2ccncc2)cc1C(=O)c1ccccc1 | 127 to 129 °C
93 | CS(=O)(=O)Nc1cccc(C=C2c3ccc(Cl)cc3CCc3cc(Cl)ccc32)c1 | 182 °C
94 | COc1cc2[nH]c(=O)c3c(c2cc1OC)CCN(CCN(C)C)C3 | 160 to 164 °C
95 | CC(=O)c1ccc2c(c1)C(c1ccccc1F)=NC(C)C(=O)N2C (stereo unspecified) | 65 °C
96 | O=C(OCC(F)(F)C(F)C(F)(F)F)C(F)CF (stereo unspecified) | 84 to 86 °C
97 | N#Cc1cc(O)cc(F)c1 | 138 to 139 °C
98 | CC(C)(C)Oc1ccc(C[C@H](NC(=O)OCc2ccccc2)C(=O)C=[N+]=[N-])cc1 | 80 to 82 °C
99 | COCCOC(=O)C1Oc2ccccc2Cc2ccccc2O1 | 74 to 76 °C
100 | CN(C)c1ncnc2[nH]c(-c3ccc(Cn4ccnc4)cc3)cc12 | 273 to 275 °C
101 | CC(=O)OCc1ccc(-c2nc3c(s2)C(=O)c2ccccc2C3=O)o1 | 204 °C
